Where two headings read alike, the source gives them in different places.
Assays:
[1] = system: HCT-116 wild-type cells; experiment: Inhibitory activity on proliferation of HCT-116 wild-type cells (Cell-Titer Glo); format: cell-based; conditions: 8 d incubation
Experimental: Cell culture: HCT-116 wild-type cells were cultured with a RPMI-1640 medium containing 10% fetal bovine serum+1% penicillin-streptomycin at 37°C in 5% carbon dioxide. Only cells in the logarithmic growth phase could be used for the test.
Test of cell proliferation activity: Cell-Titer Glo kit was used to test the proliferation inhibitory activity of the compound on HCT-116 wild-type cells. The cell concentration was adjusted, rendering that cells were inoculated into a 384-well plate at 40 µL per well and incubated overnight at 37°C and 5% carbon dioxide. 40 nL of the compound was added to each well to reach a final concentration of 0-10,000 nM (starting concentration 10,000 nM, 2-fold dilution, 10 points), and the cell plate with 0.1% DMSO content was incubated at 37°C and 5% carbon dioxide for 8 d. 40 µL of Cell-Titer Glo reagent was added to test cell viability.

[2] = system: LU99 MTAP overexpressing cells; experiment: Inhibitory activity on proliferation of LU99 MTAP overexpressing cells (Cell-Titer Glo); format: cell-based; conditions: 6 d incubation
Experimental: Materials and cells: LU99 MTAP overexpressing cell line was purchased from Kyinno Biotechnology (China); cell culture medium and fetal bovine serum were purchased from Thermo Fisher Scientific (USA); 384-well plates were purchased from PerkinElmer (USA); Cell-Titer Glo kits were purchased from Promega (USA).
Cell culture: LU99 MTAP overexpressing cells were cultured with medium containing 10% fetal bovine serum at 37°C in 5% carbon dioxide. Only cells in the logarithmic growth phase could be used for the test.
Test of inhibitory activity on cell proliferation: The Cell-Titer Glo kit was used to test the proliferation inhibitory activity of the compounds on LU99 MTAP overexpressing cells. The cell concentration was adjusted, rendering that cells were inoculated into a 384-well plate at 40 µL per well and incubated overnight at 37°C and 5% carbon dioxide. 40 nL of the compound was added to each well to reach a final concentration of 0-10,000 nM (starting concentration 10,000 nM, 2.5-fold dilution, 10 points), and the cell plate with 0.2% DMSO content was incubated at 37°C and 5% carbon dioxide for 6 d. 40 µL of Cell-Titer Glo reagent was added to test cell viability.

[3] = system: HCT-116 MTAP(-/-)deleted cells; conditions: 192 h
Experimental: (§1) Only cells in the logarithmic growth phase could be used for the test. […] The cell concentration was adjusted, rendering that cells were inoculated into a 384-well plate at 40 µL per well and incubated overnight at 37°C and 5% carbon dioxide. 40 nL of the compound was added to each well to reach a final concentration of 0-10,000 nM (starting concentration 10,000 nM, 3-fold dilution, 10 points), and the cell plate with 0.1% DMSO content was incubated at 37°C and 5% carbon dioxide for 8 d. 40 µL of Cell-Titer Glo reagent was added to test cell viability.

[4] = system: LU99 MTAP(-/-)deleted cells; conditions: 144 h
Experimental: (§2) Materials and cells: LU99 MTAP deleted cell line was purchased from Kyinno Biotechnology (China); cell culture medium and fetal bovine serum were purchased from Thermo Fisher Scientific (USA); 384-well plates were purchased from PerkinElmer (USA); Cell-Titer Glo kits were purchased from Promega (USA). Cell culture: LU99 MTAP(-/-)deleted cells were cultured with medium containing 10% fetal bovine serum at 37°C in 5% carbon dioxide. Only cells in the logarithmic growth phase could be used for the test.
(§3) Test of inhibitory activity on cell proliferation: The Cell-Titer Glo kit was used to test the proliferation inhibitory activity of the compounds on LU99 MTAP(-/-)deleted cells. The cell concentration was adjusted, rendering that cells were inoculated into a 384-well plate at 40 µL per well and incubated overnight at 37°C and 5% carbon dioxide. […] 40 µL of Cell-Titer Glo reagent was added to test cell viability.

[5] = system: LU99 MTAP(-/-)deleted cells; experiment: Inhibitory activity on proliferation of LU99 MTAP(-/-)deleted cells (Cell-Titer Glo); conditions: Homo sapiens, Lu-99, 144 h
Experimental: as §2, §3

[6] = system: HCT-116 MTAP(-/-)deleted cells; experiment: Inhibitory activity on proliferation of HCT-116 MTAP(-/-)deleted cells (Cell-Titer Glo); conditions: Homo sapiens, HCT-116, 192 h
Experimental: as §1

[7] = Pharmacokinetic test in mice; format: in vivo; conditions: male, mouse, plasma, ICR mice; for bioavailability: read-out: Bioavailability (F)
Experimental: The test compounds are compounds according to examples of the present disclosure
ICR male mice N=3/group; original source: Zhejiang Vital River Laboratory Animal Technology Co., Ltd.
Single oral administration (PO) to ICR mice: The compound was weighed and dissolved with DMSO, a certain volume of polyethylene glycol 400 and water for injection (WFI) were added, and then a small volume of 1 mol/L hydrochloric acid solution was added to adjust to a clear solution. […]
Single intravenous (IV) administration to ICR mice: The compound was weighed and dissolved with DMSO, a certain volume of polyethylene glycol 400 and water for injection (WFI) were added, and then a small volume of 1 mol/L hydrochloric acid solution was added to adjust to a clear solution. The administration via tail vein injection was conducted for a total of 3 mice after fasting overnight at a dose of 3 mg/kg.
Blood was collected from the dorsalis pedis vein at approximately 30 µL/time point, anticoagulated with dipotassium ethylenediaminetetraacetate and kept on ice until plasma was separated by centrifugation (4000 g/min; 5 min; 4°C) within 1 h. The blood sampling time points were 0.0833 (intravenous injection), 0.25, 0.5, 1, 2, 4, 6, 8, and 24 h. The samples were stored in a refrigerator at -20°C.
A total of 30 µL of plasma sample (10 µL sample + 20 µL blank plasma sample) was added with 200 µL ice-cold ACN containing internal standard, vortexed for 30 s, and centrifuged at 4000 g/min for 20 min. A total of 100 µL of the supernatant was transferred to a 96-well plate, 200 µL of ultrapure water was added, vortexed for 30 s, and 5 µL or 10 µL was injected into LC-MS/MS for analysis. Table 2: Pharmacokinetic Data

[8] = read-out: IC50 (nM) Lu99 MTAP(-/-)Deleted, LU99 MTAP(-/-)deleted cells, 6 d incubation, Cell-Titer Glo
[9] = read-out: IC50 (nM) HCT-116 MTAP(-/-)deleted, HCT-116 MTAP(-/-)deleted cells, 8 d incubation, Cell-Titer Glo
[10] = read-out: IC50 (nM) HCT-116 MTAP(-/-)deleted

CN(C(=O)c1ccc2nc(N)c3cncn3c2c1)C1COC2(CCC2)c2cc(N3CCOCC3)ncc21 (stereo not shown) [Example 6, 4-Amino-N-methyl-N-(7'-morpholinyl-3',4'-dihydrospiro[cyclobutane-1,1'-pyrano[4,3-c]pyridine]-4'-yl)imidazo[1,5-a]quinoxaline-8-carboxamide]
IC50 [1]: 10000 nM | IC50 [2]: 3880 nM | IC50 [3]: 110 nM | IC50 [4]: 88.5 nM

CN(C(=O)c1ccc2nc(N)c3cncn3c2c1)[C@@H]1COC2(CCC2)c2cc(N3CCNCC3)ncc21 [Example 21, (S)-4-amino-N-methyl-N-(7'-(piperazin-1-yl)-3'-,4'-dihydrospiro[cyclobutane-1,1'-pyrano[4,3-c]pyridine]-4'-yl)imidazo[1,5-a]quinoxaline-8-carboxamide]
IC50 ([1]; Homo sapiens, HCT-116, 192 h): > 20000 nM | IC50 ([2]; Homo sapiens, Lu-99, 144 h): 12500 nM | IC50 [5, 8]: > 1000 nM | IC50 [6, 9]: > 1000 nM

CN(C(=O)c1ccc2nc(N)c3cncn3c2c1)C1COC2(CCC3(CC3)CC2)c2cc(C(F)(F)F)ccc21 (stereo not shown) [Example 23]
IC50 ([1]; Homo sapiens, HCT-116, 192 h): 4520 nM | IC50 ([2]; Homo sapiens, Lu-99, 144 h): 3970 nM | IC50 [5, 8]: 66.1 nM | IC50 [6, 10]: 51.5 nM

CN(C(=O)c1ccc2nc(N)c3cncn3c2c1)C1COC2(CCC2)c2cc(N3CCOCC3)ncc21 (stereo not shown) [Example 28, 4-Amino-N-methyl-N-(7'-morpholinyl-3',4'-dihydrospiro[cyclobutane-1,1'-pyrano[4,3-c]pyridine]-4'-yl)imidazo[1,5-a]quinoxaline-8-carboxamide]
IC50 ([1]; Homo sapiens, HCT-116, 192 h): > 10000 nM | IC50 ([2]; Homo sapiens, Lu-99, 144 h): 3880 nM | IC50 [5, 8]: 88.5 nM | IC50 [6, 9]: 110 nM

CN(C(=O)c1ccc2nc(N)c3cncn3c2c1)[C@@H]1COC2(CCC2)c2cc(N3CC[Si](C)(C)CC3)ncc21 [Example 34]
IC50 ([1]; Homo sapiens, 192 h): 5250 nM | IC50 ([2]; Homo sapiens, Lu-99, 144 h): 1430 nM | IC50 ([5]; read-out: IC50 (nM) Lu99 MTAP(-/-)Deleted): 41.5 nM | IC50 [6, 10]: 40 nM

CN(C(=O)c1ccc2nc(N)c3cncn3c2c1)[C@@H]1COC2(CCC2)c2cc(-n3cc(C(F)(F)F)cn3)ncc21 [Example 45, (S)-4-amino-N-methyl-N-(7'-(4-(trifluoromethyl)-1H-pyrazol-1-yl)-3',4'-dihydrospiro[cyclobutane-1,1'-pyrano[4,3-c]pyridine]-4'-yl)imidazo[1,5-a]quinoxaline-8-carboxamide]
IC50 ([1]; Homo sapiens, HCT-116, 192 h): 7050 nM | IC50 ([2]; Homo sapiens, Lu-99, 144 h): 4710 nM | IC50 [5, 8]: 30.2 nM | IC50 [6, 10]: 34.1 nM

CN(C(=O)c1ccc2nc(N)c3cncn3c2c1)[C@@H]1COC2(CCC2)c2cc(N3C4COCC3C4)ncc21 [Example 48, N-((4'S)-7'-(3-oxa-6-azabicyclo[3.1.1]heptane-6-yl)-3',4'-dihydrospiro[cyclobutane-1,1'-pyrano[4,3-c]pyridine]-4'-yl)-4-amino-N-methylimidazo[1,5-a]quinoxaline-8-carboxamide]
IC50 ([1]; Homo sapiens, HCT-116, 192 h): > 20000 nM | IC50 ([2]; Homo sapiens, Lu-99, 144 h): 10600 nM | IC50 [5, 8]: 150 nM | IC50 [6, 10]: 144 nM

Cc1ncc2c(N)nc3cc(F)c(C(=O)N(C)C4COC5(CCCOC5)c5cc(C(F)(F)F)ccc54)cc3n12 (stereo not shown) [Example 51, 4-Amino-7-fluoro-N,1-dimethyl-N-(7-(trifluoromethyl)-5',6'-dihydro-2'H,4'H-pyran[isochroman-1,3'-pyran]-4-yl)imidazo[1,5-a]quinoxaline-8-carboxamide]
IC50 ([1]; Homo sapiens, HCT-116, 192 h): 1830 nM | IC50 ([2]; Homo sapiens, Lu-99, 144 h): 1320 nM | IC50 [5, 8]: 14 nM | IC50 [6, 10]: 8.02 nM

Cc1ncn2c1c(N)nc1cc(F)c(C(=O)N(C)C3COC4(CCCOC4)c4cc(C(F)(F)F)ccc43)cc12 (stereo not shown) [Example 52, 4-Amino-7-fluoro-N,3-dimethyl-N-(7-(trifluoromethyl)-5',6'-dihydro-2'H,4'H-pyran[isochroman-1,3'-pyran]-4-yl)imidazo[1,5-a]quinoxaline-8-carboxamide]
IC50 ([1]; Homo sapiens, HCT-116, 192 h): 602 nM | IC50 ([2]; Homo sapiens, Lu-99, 144 h): 539 nM | IC50 [5, 8]: 14.9 nM | IC50 [6, 10]: 8.06 nM

CN(C(=O)c1ccc2nc(N)c3cncn3c2c1)[C@H]1COC2(CC2)c2cc(C(F)(F)F)ccc21 [Example 53, (R)-4-amino-N-methyl-N-(7'-(trifluoromethyl)spiro[cyclopropane-1,1'-isochroman]-4'-yl)imidazo[1,5-a]quinoxaline-8-carboxamide]
IC50 ([1]; Homo sapiens, HCT-116, 192 h): 7590 nM | IC50 ([2]; Homo sapiens, Lu-99, 144 h): 1750 nM | IC50 [5, 8]: 682 nM | IC50 [6, 10]: 419 nM

CN(C(=O)c1ccc2nc(N)c3cncn3c2c1)[C@@H]1COC2(CC2)c2cc(C(F)(F)F)ccc21 [Example 54, (S)-4-amino-N-methyl-N-(7'-(trifluoromethyl)spiro[cyclopropane-1,1'-isochroman]-4'-yl)imidazo[1,5-a]quinoxaline-8-carboxamide]
IC50 ([1]; Homo sapiens, HCT-116, 192 h): 1040 nM | IC50 ([2]; Homo sapiens, Lu-99, 144 h): 1100 nM | bioavailability ([7]; PO(30mg/kg)): 86.5% | bioavailability ([7]; PO(100mg/kg)): 48.2% | AUC(0-t) ([7]; IV(3mg/kg)): 25.4 µg·h/mL | half-life ([7]; IV(3mg/kg)): 2.37 h | AUC(0-t) ([7]; PO(30mg/kg)): 220 µg·h/mL | half-life ([7]; PO(30mg/kg)): 1.47 h | AUC(0-t) ([7]; PO(100mg/kg)): 408 µg·h/mL | half-life ([7]; PO(100mg/kg)): 2.06 h | IC50 [5, 8]: 8.11 nM | IC50 [6, 10]: 5.8 nM

CN(C(=O)c1ccc2nc(N)c3cncn3c2c1)[C@@H]1COC(C)(C)c2cc(N3CCOCC3)ccc21 [Example 98, (S)-4-amine-N-(1,1-dimethyl-7-morpholinoisochroman-4-yl)-N-methylimidazo[1,5-a]quinoxaline-8-carboxamide]
IC50 ([1]; Homo sapiens, HCT-116, 192 h): > 10000 nM | IC50 ([2]; Homo sapiens, Lu-99, 144 h): 8100 nM | IC50 [5, 8]: 57.5 nM | IC50 [6, 10]: 47.9 nM

CN(C(=O)c1ccc2nc(N)c3cncn3c2c1)[C@@H]1COC2(CCOCC2)c2cc(C(F)(F)F)ccc21 [Example 100, (S)-4-amino-N-methyl-N-(7'-(trifluoromethyl)-2',3',5',6'-tetrahydrospiro[isochroman-1,4'-pyran]-4-yl)imidazo[1,5-a]quinoxaline-8-carboxamide]
IC50 ([1]; Homo sapiens, HCT-116, 192 h): 902 nM | IC50 ([2]; Homo sapiens, Lu-99, 144 h): 938 nM | IC50 [5, 8]: 8.5 nM | IC50 [6, 10]: 5.2 nM

CN(C(=O)c1ccc2nc(N)c3cncn3c2c1)[C@H]1COC2(CCOCC2)c2cc(C(F)(F)F)ccc21 [Example 101, (R)-4-amino-N-methyl-N-(7'-(trifluoromethyl)-2',3',5',6'-tetrahydrospiro[isochroman-1,4'-pyran]-4-yl)imidazo[1,5-a]quinoxaline-8-carboxamide]
IC50 ([1]; Homo sapiens, HCT-116, 192 h): 9490 nM | IC50 ([2]; Homo sapiens, Lu-99, 144 h): 5640 nM | IC50 [5, 8]: > 1000 nM | IC50 [6, 10]: 403 nM

Reference: patent publication EP4818171A1 (Apeiron Therapeutics (Hong Kong) Ltd., priority 2024, dated 2025)
